Measurements taken from patent publication US12187723B2 (BRISTOL-MYERS SQUIBB COMPANY, priority 2019, dated 2025).

Experiments:
human TLR9 = molecular target: T1, human TLR9 (Homo sapiens, UniProt Q9NR96); assay: TLR9 inhibition reporter assay (HEK-Blue SEAP); assay type: cell-based; settings: HEK-Blue cells overexpressing human TLR9, ODN2006 5 nM, 22 hour incubation
T1 construct: host or cells: HEK-Blue cells
T1 sequence (Q9NR96 26-1032): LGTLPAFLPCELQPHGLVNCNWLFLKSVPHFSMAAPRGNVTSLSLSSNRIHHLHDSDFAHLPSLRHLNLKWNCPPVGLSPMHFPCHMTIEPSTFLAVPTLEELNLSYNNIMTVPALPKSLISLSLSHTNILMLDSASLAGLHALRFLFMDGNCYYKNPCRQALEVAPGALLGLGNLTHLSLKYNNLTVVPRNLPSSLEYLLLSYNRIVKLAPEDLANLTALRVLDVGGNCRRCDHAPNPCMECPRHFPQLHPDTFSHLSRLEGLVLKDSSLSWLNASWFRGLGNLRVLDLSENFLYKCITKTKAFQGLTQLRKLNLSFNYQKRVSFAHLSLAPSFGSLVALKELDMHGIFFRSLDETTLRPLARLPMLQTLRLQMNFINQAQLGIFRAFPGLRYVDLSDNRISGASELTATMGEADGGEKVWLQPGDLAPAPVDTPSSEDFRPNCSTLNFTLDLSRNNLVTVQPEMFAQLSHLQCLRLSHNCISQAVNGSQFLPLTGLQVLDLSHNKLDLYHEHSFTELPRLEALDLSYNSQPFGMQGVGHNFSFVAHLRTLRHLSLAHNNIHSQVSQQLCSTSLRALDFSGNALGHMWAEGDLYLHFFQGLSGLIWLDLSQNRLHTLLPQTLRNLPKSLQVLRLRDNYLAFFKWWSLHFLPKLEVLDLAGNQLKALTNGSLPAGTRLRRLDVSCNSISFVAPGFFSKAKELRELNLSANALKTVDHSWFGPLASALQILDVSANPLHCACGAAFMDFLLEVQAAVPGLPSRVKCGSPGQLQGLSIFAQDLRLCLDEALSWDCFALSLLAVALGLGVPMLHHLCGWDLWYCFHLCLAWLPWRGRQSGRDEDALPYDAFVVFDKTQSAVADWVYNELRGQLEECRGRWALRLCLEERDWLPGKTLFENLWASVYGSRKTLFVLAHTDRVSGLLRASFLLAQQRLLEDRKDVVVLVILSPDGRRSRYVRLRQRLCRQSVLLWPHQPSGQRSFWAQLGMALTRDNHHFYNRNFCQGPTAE
How it was run: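 Human TLR7/8/9 HEK-Blue reporter lines; dose range 0.05 nM–50 μM; 30 min RT preincubation; stimulus gardiquimod 7.5 μM / R848 15.9 μM / ODN2006 5 nM respectively; 22 h, 37 °C; SEAP detected colorimetrically.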

human TLR7 = molecular target: T2, human TLR7 (Homo sapiens, UniProt Q9NYK1); assay: TLR7 inhibition reporter assay (HEK-Blue SEAP); assay type: cell-based; settings: HEK-Blue cells overexpressing human TLR7, gardiquimod 7.5 μM, 22 hour incubation
T2 construct: host or cells: HEK-Blue cells
T2 sequence (Q9NYK1 27-1049): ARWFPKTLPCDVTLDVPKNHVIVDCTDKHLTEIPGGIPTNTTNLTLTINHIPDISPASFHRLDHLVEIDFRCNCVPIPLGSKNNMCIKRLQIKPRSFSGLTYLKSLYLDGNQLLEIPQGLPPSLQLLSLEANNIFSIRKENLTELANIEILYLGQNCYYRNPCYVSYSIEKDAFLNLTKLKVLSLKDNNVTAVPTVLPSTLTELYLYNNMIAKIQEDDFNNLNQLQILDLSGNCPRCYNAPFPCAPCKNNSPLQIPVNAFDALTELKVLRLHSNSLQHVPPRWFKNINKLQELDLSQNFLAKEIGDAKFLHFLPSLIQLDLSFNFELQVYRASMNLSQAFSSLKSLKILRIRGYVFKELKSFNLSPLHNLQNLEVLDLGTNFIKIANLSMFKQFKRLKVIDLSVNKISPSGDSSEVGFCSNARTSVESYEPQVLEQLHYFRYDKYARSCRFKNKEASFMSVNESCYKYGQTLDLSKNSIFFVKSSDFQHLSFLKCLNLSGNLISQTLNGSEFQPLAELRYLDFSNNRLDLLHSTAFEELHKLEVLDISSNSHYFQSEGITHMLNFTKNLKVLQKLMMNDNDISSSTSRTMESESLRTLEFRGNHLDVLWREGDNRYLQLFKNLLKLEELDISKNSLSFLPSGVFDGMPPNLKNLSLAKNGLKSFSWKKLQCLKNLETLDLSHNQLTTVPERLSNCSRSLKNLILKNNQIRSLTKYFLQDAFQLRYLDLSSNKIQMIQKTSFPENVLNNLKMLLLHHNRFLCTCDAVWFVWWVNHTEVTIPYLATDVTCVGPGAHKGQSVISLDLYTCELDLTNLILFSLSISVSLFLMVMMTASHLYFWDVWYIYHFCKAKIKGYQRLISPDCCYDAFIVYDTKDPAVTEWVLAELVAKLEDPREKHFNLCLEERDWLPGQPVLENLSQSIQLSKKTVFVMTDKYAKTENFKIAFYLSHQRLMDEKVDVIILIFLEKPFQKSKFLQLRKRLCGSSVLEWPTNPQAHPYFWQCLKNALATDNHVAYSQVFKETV
How it was run: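 Cells (15000/well for TLR7, 20,000 for TLR8) were treated with compounds over 0.05 nM-50 μM final. After 22 h at 37° C, 5% CO2, SEAP was measured with HEK-Blue Detection reagent; percent inhibition was taken as reduction of agonist-plus-DMSO signal relative to a known inhibitor.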

Structure (SMILES) | IC50 (human TLR9) [nM] | IC50 (human TLR7) [nM]
Cc1cc2c(cc1-c1cc(C)c3ncnn3c1)[nH]c(=O)n2[C@H]1CCCN(CC(=O)N(C)C)C1 [Example 93, (S)—N,N-dimethyl-2-(3-(6-methyl-5-(8-methyl-[1,2,4]triazolo[1,5-a]pyridin-6-yl)-2-oxo-2,3-dihydro-1H-benzo[d]imidazol-1-yl)piperidin-1-yl)acetamide] | 12600 | 565
COc1cc(-c2cc3[nH]c(=O)n([C@H]4CC[C@@H](NCC5CC5)CC4)c3cc2C)cn2ncnc12 [Example 60, 1-((1s,4s)-4-((cyclopropylmethyl)amino)cyclohexyl)-5-(8-methoxy-[1,2,4]triazolo[1,5-a]pyridin-6-yl)-6-methyl-1,3-dihydro-2H-benzo[d]imidazol-2-one] | 6540 | 27.6
CCC(CC)N1CCC[C@@H](n2c(=O)[nH]c3cc(-c4cc(OC)c5ncnn5c4)c(C)cc32)C1 [Example 67, (R)-5-(8-methoxy-[1,2,4]triazolo[1,5-a]pyridin-6-yl)-6-methyl-1-(1-(pentan-3-yl)piperidin-3-yl)-1,3-dihydro-2H-benzo[d]imidazol-2-one] | 9620 | 33
COc1cc(-c2cc3[nH]c(=O)n([C@H]4CC[C@@H](N(C)C)CC4)c3cc2C)cn2ncnc12 [Example 48, 1-((1s,4s)-4-(dimethylamino)cyclohexyl)-5-(8-methoxy-[1,2,4]triazolo[1,5-a]pyridin-6-yl)-6-methyl-1,3-dihydro-2H-benzo[d]imidazol-2-one] | 3770 | 14.8
Cc1cc2c(cc1-c1cc(C)c3ncnn3c1)[nH]c(=O)n2[C@@H]1CCCN(CCC(C)(C)C)C1 [Example 44, (R)-1-(1-(3,3-dimethylbutyl)piperidin-3-yl)-6-methyl-5-(8-methyl-[1,2,4]triazolo[1,5-a]pyridin-6-yl)-1,3-dihydro-2H-benzo[d]imidazol-2-one] | 4720 | 104
CCN[C@H]1CC[C@@H](n2c(=O)[nH]c3cc(-c4cc(OC)c5ncnn5c4)c(C)cc32)CC1 [Example 63, 1-((1s,4s)-4-(ethylamino)cyclohexyl)-5-(8-methoxy-[1,2,4]triazolo[1,5-a]pyridin-6-yl)-6-methyl-1,3-dihydro-2H-benzo[d]imidazol-2-one] | 10000 | 45.1
Cc1cc2c(cc1-c1cc(C)c3ncnn3c1)[nH]c(=O)n2C1CCN(CC(=O)N(C)C)CC1 [Example 89, N,N-dimethyl-2-(4-(6-methyl-5-(8-methyl-[1,2,4]triazolo[1,5-a]pyridin-6-yl)-2-oxo-2,3-dihydro-1H-benzo[d]imidazol-1-yl)piperidin-1-yl)acetamide] | 29000 | 111
COc1cc(-c2cc3[nH]c(=O)n([C@@H]4CCCN(C5CCC5)C4)c3cc2C)cn2ncnc12 [Example 69, (R)-1-(1-cyclobutylpiperidin-3-yl)-5-(8-methoxy-[1,2,4]triazolo[1,5-a]pyridin-6-yl)-6-methyl-1,3-dihydro-2H-benzo[d]imidazol-2-one] | 19300 | 96.9
COc1cc(-c2ccc3c(c2)[nH]c(=O)n3C2CCN(CC3CCOC3)CC2)cn2ncnc12 (stereo not shown) [Example 82, 5-(8-methoxy-[1,2,4]triazolo[1,5-a]pyridin-6-yl)-1-(1-((tetrahydrofuran-3-yl)methyl)piperidin-4-yl)-1,3-dihydro-2H-benzo[d]imidazol-2-one] | 4770 | 1300
Cc1cc2c(cc1-c1cc(C)c3ncnn3c1)[nH]c(=O)n2[C@@H]1CCCN(CCCC(F)(F)F)C1 [Example 39, (R)-6-methyl-5-(8-methyl-[1,2,4]triazolo[1,5-a]pyridin-6-yl)-1-(1-(4,4,4-trifluorobutyl)piperidin-3-yl)-1,3-dihydro-2H-benzo[d]imidazol-2-one] | 10600 | 139
Cc1cc2c(cc1-c1cc(C)c3ncnn3c1)[nH]c(=O)n2[C@@H]1CCCN(CC2CCCC2)C1 [Example 47, (R)-1-(1-(cyclopentylmethyl)piperidin-3-yl)-6-methyl-5-(8-methyl-[1,2,4]triazolo[1,5-a]pyridin-6-yl)-1,3-dihydro-2H-benzo[d]imidazol-2-one] | 3620 | 18.5
Cc1cc2c(cc1-c1cc(C)c3ncnn3c1)[nH]c(=O)n2[C@H]1CC[C@@H](NCC(C)(C)C)CC1 [Example 32, 6-methyl-5-(8-methyl-[1,2,4]triazolo[1,5-a]pyridin-6-yl)-1-((1s,4s)-4-(neopentylamino)cyclohexyl)-1,3-dihydro-2H-benzo[d]imidazol-2-one] | 2340 | 20.4
CNC(=O)CN1CCC(n2c(=O)[nH]c3cc(-c4cc(C)c5ncnn5c4)c(C)cc32)CC1 [Example 88, N-methyl-2-(4-(6-methyl-5-(8-methyl-[1,2,4]triazolo[1,5-a]pyridin-6-yl)-2-oxo-2,3-dihydro-1H-benzo[d]imidazol-1-yl)piperidin-1-yl)acetamide] | 45300 | 333
COc1cc(-c2cc3[nH]c(=O)n([C@H]4CC[C@@H](NC5CCCCC5)CC4)c3cc2C)cn2ncnc12 [Example 62, 1-((1s,4s)-4-(cyclohexylamino)cyclohexyl)-5-(8-methoxy-[1,2,4]triazolo[1,5-a]pyridin-6-yl)-6-methyl-1,3-dihydro-2H-benzo[d]imidazol-2-one] | 2350 | 12
CCCN1CCC[C@@H](n2c(=O)[nH]c3cc(-c4cc(OC)c5ncnn5c4)c(C)cc32)C1 [Example 54, (R)-5-(8-methoxy-[1,2,4]triazolo[1,5-a]pyridin-6-yl)-6-methyl-1-(1-propylpiperidin-3-yl)-1,3-dihydro-2H-benzo[d]imidazol-2-one] | 4230 | 29.2
Cc1cc2c(cc1-c1cc(C)c3ncnn3c1)[nH]c(=O)n2C1CCN(C(C)C)CC1 [Example 2, 1-(1-isopropylpiperidin-4-yl)-6-methyl-5-(8-methyl-[1,2,4]triazolo[1,5-a]pyridin-6-yl)-1,3-dihydro-2H-benzo[d]imidazol-2-one] | 5560 | 68.8
COc1cc(-c2cc3[nH]c(=O)n([C@H]4CC[C@@H](NC5CCOCC5)CC4)c3cc2C)cn2ncnc12 [Example 49, 5-(8-methoxy-[1,2,4]triazolo[1,5-a]pyridin-6-yl)-6-methyl-1-((1s,4s)-4-((tetrahydro-2H-pyran-4-yl)amino)cyclohexyl)-1,3-dihydro-2H-benzo[d]imidazol-2-one] | 7430 | 18.2
